In assay [1] the test system is morphine CPP. The assay is described as follows: Consolidated morphine CPP after a single reconditioning session; inhibitor given after reconditioning. It counts as in vivo, Long Evans rats. The text has this:
However, it is important to consider that during morphine CPP, the drug may serve as an internal reinforcer and the animal experiences a strong reward. It remained unknown whether CPP may become labile if the rewarding state of the drug experience is concomitantly reactivated with the contextual cues (reconditioning). Therefore, it was examined whether a previously formed CPP becomes labile after a reconditioning session. Rats were conditioned to morphine for 4 days and, 1 week later, were exposed to another, single conditioning session. Immediately after this session, half of the animals received an injection of inhibitor (cycloheximide or anisomycin) and the other half of vehicle solution and were then all retested 24 hours and 1 week later.
It was then tested whether blocking protein synthesis after reconditioning for a longer time would result in a stable disruption of CPP. Groups of rats were treated as above but received two injections of cycloheximide, one immediately after reconditioning and the second 5 hours later, a protocol that, as described in the first set of experiments, block 70% of protein synthesis for several hours.
(§1) Adult Long Evans rats (200-250 grams) were used for all the experiments. On day 1, the rats received a single pre-exposure test in a box composed of two distinct compartments (Pre-conditioning). The time spent in each chamber over 10 minutes was recorded (unconditioned preference) and then the animals were returned to their homecages. Animals showing a strong unconditioned preference (>540 s) were discarded. On the subsequent 4 days, place preference conditioning was conducted using an unbiased procedure. In each experimental group, the animals received a subcutaneous injection of either morphine (10 mg/kg) or saline (vehicle solution). Half of both groups were confined for 30 minutes in the spontaneously preferred compartment and the other half in the non-preferred compartment. Testing consisted of allowing the animals free access to both chambers for 10 minutes and recording the amount of time that the animals spend in the conditioned chamber (CPP score). All protocols complied with the N.I.H. Guide for the Care and Use of Laboratory Animals and were approved by the Mount Sinai School of Medicine Animal care Committees.
(§2) Anisomycin and Cycloheximide were injected s.c. at 210 mg/Kg (Milekic and Alberini, 2002) and 2.8 mg/Kg (Squire et al., 1980), respectively. Anisomycin was dissolved as previously described (Milekic and Alberini, 2002). Cycloheximide was dissolved in DMSO and finally diluted in 1% DMSO/saline. Vehicle solutions were prepared accordingly.

In assay [2] the test system is morphine CPP. The assay is described as follows: Maintenance of morphine CPP after contextual reactivation (Test 1); inhibitor given after recall. The assay is classed as in vivo, Long Evans rats. The conditions noted are these: for CPP score, mean±SEM: injection immediately after Test 1 (1 week after conditioning), Test 2, 24 hours later, cycloheximide and anisomycin scores combined; for change in CPP score: injection immediately after Test 1, re-tested 24 hours later (Test 2). The protocol: The purpose of second set of experiments was to determine whether morphine CPP becomes labile if recalled. Groups of rats were conditioned to morphine for 4 days. […] This test recalled the experience (Test 1), or, in other words, reactivated CPP. Immediately after Test 1, half of the rats received an injection of cycloheximide or anisomycin and half were injected with vehicle. The animals were re-tested 24 hours later (Test 2). […] (Test1-vehicle: 394.4±42.6 sec; Test1-inhibitor: 387.8±25.8 sec; Test2-vehicle 413.3±35.9 sec; Test2-inhibitor 425.9±25.3 sec) (FIG. 2). Because both cycloheximide and anisomycin-treated rats performed similarly, their scores were combined.
as §1, §2

In assay [3] the test system is morphine CPP. In words: Induction of morphine conditioned place preference (CPP); inhibitor given after conditioning. The conditions noted are these: for CPP score (time spent in drug associated-chamber), mean±SEM: single s.c. dose at end of four-day conditioning, anisomycin and cycloheximide groups combined; for effect on morphine CPP: single s.c. dose at the end of four-day conditioning, tested at 24 hours. The assay is classed as in vivo, Long Evans rats. On the procedure: . CPP was tested after 24 hours. To determine whether the effect was stable, the animals were retested 1 week later.
(§3) Because both anisomycin and cycloheximide produced a similar effect, the CPP score of the two groups were combined. […] Further experimentation was needed to determine whether a more extended inhibition of protein synthesis was able to persistently block CPP. Groups of rats were treated as above but received two injections of cycloheximide, one immediately after the last conditioning session and the second 5 hours later. In parallel, the rates of protein synthesis inhibition, over time, following a single or double injection were established. […] With a double injection, 5 hours apart, the rate of protein synthesis inhibition at 6 hours was maintained at 71%. The results after two injections were similar to those after a single injection; in fact, the CPP of rats that received two injection of cycloheximide was inhibited at 24 hours, but recovered a week later (data not shown).
Experimentation was needed to test the possibility that blocking protein synthesis after each daily conditioning produced a stable loss of CPP. Groups of rats received an injection of either cycloheximide or vehicle every day at the end of each conditioning trial and were then tested 24 hours, 1 week and 4 weeks later. […] This inhibition persisted at 1 week (254.8±32.8 sec and 429.4±33.1 sec, respectively, p<0.01) and 4 weeks (243.3±21.8 sec and 416.8±31.4 sec, respectively, p<0.01) post-conditioning (FIG. 1B).
as §1, §2

Assay [4] concerns morphine CPP. In words: Morphine CPP, conditioning context omitted (injections in homecage). The assay is classed as in vivo, Long Evans rats. On the procedure:
(3C) The conditioning context was omitted and rats (n=8) were injected in their home cage with morphine and 30 min later with cycloheximide at the same time point as in (3A) and (3B). CPP was tested 24 hr after injection (post-injection).
(3D) Rats were injected only with cycloheximide (n=9) in the home cage at the same time points as in (3A) and (3B) without receiving either morphine or exposure to the conditioning context. CPP was tested 24 hr after the last injection (post-injection).
To investigate whether the blocking effect of the inhibitors on CPP was context-specific, the conditioning context was omitted, that is morphine and cycloheximide were administered in the homecages at the same times after conditioning.
as §1
Anisomycin and Cycloheximide were injected s.c. at 210 mg/Kg (Milekic and Alberini, 2002) and 2.8 mg/Kg (Squire et al., 1980), respectively. Anisomycin was dissolved as previously described (Milekic and Alberini, 2002). […]

The subject of assay [5] is protein synthesis. The assay is described as follows: Inhibition of protein synthesis in brain (L-[35S]methionine incorporation). It counts as in vivo, rats. On the procedure:
as §3
Inhibition of protein synthesis was assessed according to Rosenblum et al. (1993) with modifications. Rats were injected with 125 μCi L-[^35S]methionine (i.p.) and immediately after received an injection of either protein synthesis inhibitors, (cycloheximide or anisomycin) or vehicle solution. The rats were sacrificed one hour after the last inhibitor injection. The brains were homogenized in 5 volumes of cold lysis buffer (1% SDS, 60 mM Tris.Cl pH 7.4, 62.4 mM imidazole, 40 mM DTT, 10% glycerol). The homogenates were boiled for 5 min and centrifuged at 18,000 g for 20 min at room temperature. Equal amount of proteins were precipitated with 20% TCA and the radioactivity was counted. The inhibition of protein synthesis was calculated as: [1−(CPMinhibitor/CPMvehicle)]×100.

[6] abbreviates: single injection immediately after reconditioning, 1 week later, cycloheximide or anisomycin combined.
[7] abbreviates: single injection immediately after reconditioning, 24 hours after reconditioning, cycloheximide or anisomycin combined.
Where [8] appears, read: injection every day at the end of each conditioning trial, 24 hours after conditioning.

For the compound `COc1ccc(C[C@H]2NC[C@H](O)[C@H]2OC(C)=O)cc1` [anisomycin], the “CPP score, mean±SEM” value in assay [1] (setting [6]) stood at 365.4 ± 45.1 s; in assay [1] (setting [7]), 261.5 ± 33.9 s; in assay [2] it was 425.9 ± 25.3 s. The “change in CPP score” value in assay [2] is given as “No change”. In addition, the figures for the “CPP score (time spent in drug associated-chamber), mean±SEM” value in assay [3] (24 hours) and in assay [3] (re-tested 1 week later) were 280.1 ± 17.5 s and 358.9 ± 28.0 s, respectively. Further, the “effect on morphine CPP” value in assay [3] is on record as “completely blocked”.

In the case of `C[C@@H]1C[C@@H]([C@H](O)CC2CC(=O)NC(=O)C2)C(=O)[C@@H](C)C1` [cycloheximide], the “CPP score, mean±SEM” value amounted to 264.1 ± 13.3 s in assay [1] (double injection (immediately after reconditioning and 5 hours later), 24 hours); 239.9 ± 34.4 s in assay [1] (double injection after reconditioning, 1 week); 270.1 ± 27.2 s in assay [1] (double injection after reconditioning, 2 weeks); 278.4 ± 32.5 s in assay [1] (double injection after reconditioning, 4 weeks); 365.4 ± 45.1 s in assay [1] (setting [6]); 261.5 ± 33.9 s in assay [1] (setting [7]). In addition, the “CPP score, mean±SEM” value turned out to be 362.22 ± 17.4 s in assay [4] (morphine and cycloheximide administered in the homecages, conditioning context omitted, post-conditioning (24 hr after injection)); 399.8 ± 31.6 s in assay [4] (only the inhibitor in the homecage, morphine and context omitted, post-conditioning (24 hr after last injection)); 425.9 ± 25.3 s in assay [2]; 254.8 ± 32.8 s in assay [3] (injection every day at the end of each conditioning trial, 1 week post-conditioning); 243.3 ± 21.8 s in assay [3] (injection every day at the end of each conditioning trial, 4 weeks post-conditioning); 226.6 ± 47.2 s in assay [3] (setting [8]). Further, the “effect on CPP” value is “completely and persistently blocked” in assay [1] (double injection after reconditioning, tested 24 hours to 4 weeks); “No blocking effect” in assay [4] (morphine and cycloheximide administered in the homecages, conditioning context omitted); “complete inhibition” in assay [3] (setting [8]); “recovered” in assay [3] (two injections (immediately after last conditioning session and 5 hours later), a week later, data not shown); “inhibited” in assay [3] (two injections (immediately after last conditioning session and 5 hours later), at 24 hours, data not shown). Besides, the “change in CPP score” value in assay [2] was “No change”. Also, the “inhibition of protein synthesis” value in assay [5] (double injection, 5 hours apart, at 6 hours) is listed as 71%; in assay [5] (single injection, at 1 hour), 70%; in assay [5] (single injection, at 6 hours after injection), 23%. Besides, the protein synthesis blocked in assay [5] (two injections, 5 hours apart, for several hours) is 70%. Also, the “CPP score (time spent in drug associated-chamber), mean±SEM” value in assay [3] (24 hours) stood at 280.1 ± 17.5 s; in assay [3] (re-tested 1 week later), 358.9 ± 28.0 s. The “effect on morphine CPP” value in assay [3] is on record as “completely blocked”.
